How the values were obtained:
[1] = tested on: UM-SCC-17B; test: 6-day MTT cell growth, UM-SCC-17B; assay type: cell-based, human; conditions: read-out: IC50, inhibition of cell growth
Method: (§1) UM-SCC and human fibroblast cell lines were continuously exposed to varying concentrations of (−)-gossypol in 6-day MTT cell survival assays. Control wells contained media (DMEM) with vehicle alone. For each data point n=5.
(§2) Ten squamous cell carcinoma cell lines established at the University of Michigan (UM-SCC) and three human fibroblast lines were grown in Dulbecco's modified Eagle's medium (DMEM) supplemented with 10% fetal bovine serum. UM-SCC cell lines originated from the larynx (n=2; UM-SCC-12, -23), oral cavity/oropharynx (n=5; UM-SCC-1, -6, -14A, -74B, -81B), hypopharynx (n=1; UM-SCC-22A) and metastases from laryngeal cancers (n=2; UM-SCC-17B, -25). Human fibroblast cell lines originated from surgical specimens (fibroblast cell lines 2 and 3) and neonatal foreskin samples (fibroblast cell line 1).
(§3) Logarithmically growing cell lines were cultured, washed, counted, and plated at 5,000-15,000 cells per well in duplicate wells of 96-well plates and incubated in DMEM overnight. […] The MTT assay measures cell survival based on mitochondrial conversion of MTT from a soluble tetrazolium salt into an insoluble colored formazan precipitate, which is dissolved in dimethyl sulfoxide and quantitated by spectrophotometry. […] Percent absorbance relative to control was plotted as a linear function of drug concentration.

[2] = tested on: UM-SCC-12; test: 6-day MTT cell growth, UM-SCC-12; assay type: cell-based, human; conditions: read-out: IC50, inhibition of cell growth
Method: as §1, §2, §3

[3] = tested on: Fib-2 (fibroblast cell line 2); test: 6-day MTT cell growth, Fib-2; assay type: cell-based, human; conditions: read-out: IC50, inhibition of cell growth
Method: as §1, §2, §3

[4] = tested on: UM-SCC-74B; test: 6-day MTT cell growth, UM-SCC-74B; assay type: cell-based, human; conditions: read-out: IC50, inhibition of cell growth
Method: as §1, §2, §3

[5] = tested on: UM-SCC-22A; test: 6-day MTT cell growth, UM-SCC-22A; assay type: cell-based, human; conditions: read-out: IC50, inhibition of cell growth
Method: as §1, §2, §3

[6] = tested on: Fib-1 (fibroblast cell line 1); test: 6-day MTT cell growth, Fib-1; assay type: cell-based, human; conditions: read-out: IC50, inhibition of cell growth
Method: as §1, §2, §3

[7] = tested on: colon cancer cell line HT-29 xenograft; conditions: Table 12; cisplatin 10 mg/kg i.v. twice q week; most mice, during the 2nd week of treatment; dose too high
[8] = tested on: UM-SCC-81B; test: 6-day MTT cell growth, UM-SCC-81B; assay type: cell-based, human; conditions: read-out: IC50, inhibition of cell growth
Method: as §1, §2, §3

[9] = tested on: UM-SCC-14A; test: 6-day MTT cell growth, UM-SCC-14A; assay type: cell-based, human; conditions: read-out: IC50, inhibition of cell growth
Method: as §1, §2, §3

[10] = tested on: UM-SCC-23; test: 6-day MTT cell growth, UM-SCC-23; assay type: cell-based, human; conditions: read-out: IC50, inhibition of cell growth
Method: as §1, §2, §3

[11] = tested on: Fib-3 (fibroblast cell line 3); test: 6-day MTT cell growth, Fib-3; assay type: cell-based, human; conditions: read-out: IC50, inhibition of cell growth
Method: as §1, §2, §3

[12] = tested on: UM-SCC-25; test: 6-day MTT cell growth, UM-SCC-25; assay type: cell-based, human; conditions: read-out: IC50, inhibition of cell growth
Method: as §1, §2, §3

[13] = tested on: UM-SCC-6; test: 6-day MTT cell growth, UM-SCC-6; assay type: cell-based, human; conditions: read-out: IC50, inhibition of cell growth
Method: as §1, §2, §3

[14] = tested on: UM-SCC-1; test: 6-day MTT cell growth, UM-SCC-1; assay type: cell-based, human; conditions: read-out: IC50, inhibition of cell growth
Method: as §1, §2, §3

[15] = tested on: PC-3 human prostate cancer bilateral xenografts; test: PC-3 xenograft, (−)-gossypol alone and with cisplatin (Table 11); assay type: in vivo, NCr-nu nude mouse; conditions: mouse, in vivo
[16] = tested on: A549 non-small cell lung carcinoma xenograft; conditions: mouse, in vivo
[17] = tested on: A549 non-small cell lung carcinoma xenograft; test: A549 non-small cell lung carcinoma xenograft, (−)-gossypol with paclitaxel; conditions: Table 13; paclitaxel 15 mg/kg i.p. twice q week for 3 weeks, alone

For N.N.[Cl][Pt][Cl] [Cisplatin, cisplatin, reference compound], the IC50 [1] was 13 µM, the IC50 [2] was 22 µM and the IC50 [3] was > 50 µM. For the same compound, the IC50 [4] was 12 µM, the IC50 [5] was 5 µM and the IC50 [6] was > 50 µM. The “mortality in cisplatin treated group” value [7] was “mice were dead in the cisplatin”, the IC50 [8] was 22 µM and the IC50 [9] was 29 µM. For the same compound, the IC50 [10] was 25 µM, the IC50 [11] was > 50 µM and the IC50 [12] was 43 µM. The IC50 [13] was > 50 µM, the IC50 [14] was 30 µM and the “time after CDDP treatment stopped when mice started to gain back the weight” value [15] was “to gain back the weight 1-2 weeks”.
With CC(=O)O[C@H]1C(=O)[C@@]2(C)[C@H]([C@H](OC(=O)c3ccccc3)[C@]3(O)C[C@H](OC(=O)[C@H](O)[C@@H](NC(=O)c4ccccc4)c4ccccc4)C(C)=C1C3(C)C)[C@]1(OC(C)=O)CO[C@@H]1C[C@@H]2O [Paclitaxel] the weight loss [16] was “There was no weight loss in mice” and the tumor growth inhibition [17] was “achieved about 67% tumor growth”.

From patent US8163805B2, “Small molecule antagonists of Bcl-2 family proteins” (The Regents of the University of Michigan, priority 2001, dated 2012)
